≈ marks a conversion by molar mass, not a printed value.
Key:
Experiment in all cases: In vitro antibacterial evaluation: minimum inhibitory concentration (MIC), broth dilution method
Type in all cases: cell-based
[1] = tested on: Streptococcus sp.
How it was run: (§1)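 First, organisms are seeded at 5×10^5 CFU/mL into Muller-Hinton II […]. Next, antibiotic is applied across 64-0.06 μg/mL by broth dilution (NCCLS M7-A2). Finally, the lowest inhibitory concentration is recorded as MIC.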

[2] = tested on: Staphylococcus sp.; conditions: broth dilution, 18 hours at 35° C.
How it was run: as §1

[3] = tested on: Enterococcus sp.
How it was run: as §1

[4] = tested on: Escherichia coli; conditions: strain GC 4560
How it was run: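 An MIC is reported for each organism as the least concentration giving inhibition, using broth dilution over 64-0.06 μg/mL with a 5×10^5 CFU/mL inoculum.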

[5] = broth dilution, inoculum 5×10^5 CFU/mL, 18 hours at 35° C.

MIC Streptococcus agalactiae (GC 4564) [1, 5]: 2 µg/mL (≈ 1.36 µM) | MIC Streptococcus pneumoniae (ATCC 6301) [1, 5]: 1 µg/mL (≈ 0.679 µM) | MIC Streptococcus pneumoniae (GC 1894) [1, 5]: 0.25 µg/mL (≈ 0.17 µM) | MIC Streptococcus pneumoniae (GC 4565) [1, 5]: 1 µg/mL (≈ 0.679 µM) | MIC Streptococcus pyogenes (GC 4563) [1, 5]: 1 µg/mL (≈ 0.679 µM) | MIC Streptococcus pneumoniae (ATCC 6301) ([1]; strain ATCC 6301): 1 µg/mL (≈ 0.679 µM) | MIC Streptococcus pneumoniae (GC 1894) ([1]; strain GC 1894): 0.25 µg/mL (≈ 0.17 µM) | MIC Streptococcus pyogenes (GC 4563) ([1]; strain GC 4563): 1 µg/mL (≈ 0.679 µM) | MIC Streptococcus agalactiae (GC 4564) ([1]; strain GC 4564): 2 µg/mL (≈ 1.36 µM) | MIC Streptococcus pneumoniae (GC 4565) ([1]; strain GC 4565): 1 µg/mL (≈ 0.679 µM) | MIC Coagulase Negative Staphylococcus (GC 4547) ([2]; 5×10^5 CFU/mL): 8 µg/mL (≈ 5.43 µM) | MIC Coagulase Negative Staphylococcus (GC 4548) ([2]; 5×10^5 CFU/mL): 8 µg/mL (≈ 5.43 µM) | MIC Coagulase Negative Staphylococcus (GC 4549) ([2]; 5×10^5 CFU/mL): 8 µg/mL (≈ 5.43 µM) | MIC Coagulase Negative Staphylococcus (GC 4551) ([2]; 5×10^5 CFU/mL): 16 µg/mL (≈ 10.9 µM) | MIC Coagulase Negative Staphylococcus (GC 6257) ([2]; 5×10^5 CFU/mL): 8 µg/mL (≈ 5.43 µM) | MIC Staphylococcus aureus (ATCC 29213) ([2]; 5×10^5 CFU/mL): 16 µg/mL (≈ 10.9 µM) | MIC Staphylococcus aureus (GC 1131) ([2]; 5×10^5 CFU/mL): 16 µg/mL (≈ 10.9 µM) | MIC Staphylococcus aureus (GC 3051) ([2]; 5×10^5 CFU/mL): 16 µg/mL (≈ 10.9 µM) | MIC Staphylococcus aureus (GC 3053) ([2]; 5×10^5 CFU/mL): 16 µg/mL (≈ 10.9 µM) | MIC Staphylococcus aureus (GC 4541) ([2]; 5×10^5 CFU/mL): 8 µg/mL (≈ 5.43 µM) | MIC Staphylococcus aureus (GC 4542) ([2]; 5×10^5 CFU/mL): 16 µg/mL (≈ 10.9 µM) | MIC Staphylococcus aureus (GC 4544) ([2]; 5×10^5 CFU/mL): 16 µg/mL (≈ 10.9 µM) | MIC Staphylococcus aureus (GC 4545) ([2]; 5×10^5 CFU/mL): 16 µg/mL (≈ 10.9 µM) | MIC Staphylococcus aureus-SMITH (GC 4543) ([2]; 5×10^5 CFU/mL): 16 µg/mL (≈ 10.9 µM) | MIC Staphylococcus aureus (ATCC 29213) ([2]; strain ATCC 29213): 16 µg/mL (≈ 10.9 µM) | MIC Staphylococcus aureus (GC 1131) ([2]; strain GC 1131): 16 µg/mL (≈ 10.9 µM) | MIC Staphylococcus aureus (GC 3051) ([2]; strain GC 3051): 16 µg/mL (≈ 10.9 µM) | MIC Staphylococcus aureus (GC 3053) ([2]; strain GC 3053): 16 µg/mL (≈ 10.9 µM) | MIC Staphylococcus aureus (GC 4541) ([2]; strain GC 4541): 8 µg/mL (≈ 5.43 µM) | MIC Staphylococcus aureus (GC 4542) ([2]; strain GC 4542): 16 µg/mL (≈ 10.9 µM) | MIC Staphylococcus aureus-SMITH (GC 4543) ([2]; strain GC 4543): 16 µg/mL (≈ 10.9 µM) | MIC Staphylococcus aureus (GC 4544) ([2]; strain GC 4544): 16 µg/mL (≈ 10.9 µM) | MIC Staphylococcus aureus (GC 4545) ([2]; strain GC 4545): 16 µg/mL (≈ 10.9 µM) | MIC Coagulase Negative Staphylococcus (GC 4547) ([2]; strain GC 4547): 8 µg/mL (≈ 5.43 µM) | MIC Coagulase Negative Staphylococcus (GC 4548) ([2]; strain GC 4548): 8 µg/mL (≈ 5.43 µM) | MIC Coagulase Negative Staphylococcus (GC 4549) ([2]; strain GC 4549): 8 µg/mL (≈ 5.43 µM) | MIC Coagulase Negative Staphylococcus (GC 4551) ([2]; strain GC 4551): 16 µg/mL (≈ 10.9 µM) | MIC Coagulase Negative Staphylococcus (GC 6257) ([2]; strain GC 6257): 8 µg/mL (≈ 5.43 µM) | MIC Enterococcus avium (GC 4558) [3, 5]: 32 µg/mL (≈ 21.7 µM) | MIC Enterococcus faecalis (ATCC 29212) [3, 5]: 32 µg/mL (≈ 21.7 µM) | MIC Enterococcus faecalis (GC 2242) [3, 5]: 32 µg/mL (≈ 21.7 µM) | MIC Enterococcus faecalis (GC 2691) [3, 5]: 32 µg/mL (≈ 21.7 µM) | MIC Enterococcus faecalis (GC 3059) [3, 5]: 32 µg/mL (≈ 21.7 µM) | MIC Enterococcus faecalis (GC 4552) [3, 5]: 32 µg/mL (≈ 21.7 µM) | MIC Enterococcus faecalis (GC 4553) [3, 5]: 32 µg/mL (≈ 21.7 µM) | MIC Enterococcus faecalis (GC 4554) [3, 5]: 32 µg/mL (≈ 21.7 µM) | MIC Enterococcus faecalis (GC 6189) [3, 5]: 32 µg/mL (≈ 21.7 µM) | MIC Enterococcus faecium (GC 2243) [3, 5]: 32 µg/mL (≈ 21.7 µM) | MIC Enterococcus faecium (GC 4556) [3, 5]: 32 µg/mL (≈ 21.7 µM) | MIC Enterococcus faecium (GC 4557) [3, 5]: 8 µg/mL (≈ 5.43 µM) | MIC Enterococcus faecalis (ATCC 29212) ([3]; strain ATCC 29212): 32 µg/mL (≈ 21.7 µM) | MIC Enterococcus faecalis (GC 2242) ([3]; strain GC 2242): 32 µg/mL (≈ 21.7 µM) | MIC Enterococcus faecium (GC 2243) ([3]; strain GC 2243): 32 µg/mL (≈ 21.7 µM) | MIC Enterococcus faecalis (GC 2691) ([3]; strain GC 2691): 32 µg/mL (≈ 21.7 µM) | MIC Enterococcus faecalis (GC 3059) ([3]; strain GC 3059): 32 µg/mL (≈ 21.7 µM) | MIC Enterococcus faecalis (GC 4552) ([3]; strain GC 4552): 32 µg/mL (≈ 21.7 µM) | MIC Enterococcus faecalis (GC 4553) ([3]; strain GC 4553): 32 µg/mL (≈ 21.7 µM) | MIC Enterococcus faecalis (GC 4554) ([3]; strain GC 4554): 32 µg/mL (≈ 21.7 µM) | MIC Enterococcus faecium (GC 4556) ([3]; strain GC 4556): 32 µg/mL (≈ 21.7 µM) | MIC Enterococcus faecium (GC 4557) ([3]; strain GC 4557): 8 µg/mL (≈ 5.43 µM) | MIC Enterococcus avium (GC 4558) ([3]; strain GC 4558): 32 µg/mL (≈ 21.7 µM) | MIC Enterococcus faecalis (GC 6189) ([3]; strain GC 6189): 32 µg/mL (≈ 21.7 µM) | MIC Escherichi coli (GC 4560) [4]: 8 µg/mL (≈ 5.43 µM)
Compound: CCOc1cc(C2OCC3OC(OC4C(CO)OC(Oc5ccc(CC6NC(=O)C(C(C)c7ccccc7)NC(=O)CNC(=O)C(CO)NC(=O)C(C(O)C7CNC(=N)N7C7OC(CO)C(O)C(O)C7O)NC(=O)C(C(O)C7CNC(=N)N7)NC6=O)cc5)C(O)C4O)C(O)C(O)C3O2)ccc1[N+](=O)[O-] (stereo not drawn) [Example 167, Cyclo[glycyl-β-methylphenylalanyl-O-[4-O-[4,6-O-(3-ethoxy-4-nitrobenzylidene)hexopyranosyl]hexopyranosyl]tyrosyl-3-(2-iminoimidazolidin-4-yl)seryl-3-(3-hexopyranosyl-2-iminoimidazolidin-4-yl)serylseryl]]
MIC Staphylococcus haemolyticus (GC 4546) ([2]; 5×10^5 CFU/mL): 16 µg/mL (≈ 10.9 µM) | MIC Staphylococcus haemolyticus (GC 4546) ([2]; strain GC 4546): 16 µg/mL (≈ 10.9 µM)
